Experimental data: patent US10759790B2, “Heterocyclic constrained tricyclic sulfonamides as anti-cancer agents” (ICAHN SCHOOL OF MEDICINE AT MOUNT SINAI, priority 2015, dated 2020)

Tests used:
[1] = In vivo H358 xenograft model: body weights and signs of toxicity (Example 17b); design: species or system BALB/c nu/nu mice; conditions: 5 mg/kg BID oral gavage
Description: (§1) To evaluate the efficacy of Example 17b in vivo, xenograft model was utilized using the H358 cell line. H358 cells (1×10^7) were injected into the right flank of 6- to 8-week-old male BALB/c nu/nu mice. Mice were randomized to treatment groups based on initial tumor volume. Tumor volume was assessed twice a week by caliper measurement, until volumes reached an average of 200 mm^3. Mice were treated by oral gavage with vehicle control or Example 17b (5 mg/kg) BID. The treatment schedules were initiated, and the mouse tumors were measured every other day for the duration of the study. Mice body weights were recorded weekly and percentage of mice body weights during treatment was calculated as: weight at each time point/initial weight×100.

H1650 lung cancer cells = assay: Cell viability assay (MTT, IC50 determination); format: cell-based; conditions: Homo sapiens, NCI-H1650; H1650 lung cancer cells, MTT, 48 hours after drug treatment; read-out: H1650 cell viability IC50
Description: Cell viability assays were performed according to Denizot, F. and R. Lang, Journal of Immunological Methods, 1986. 89(22): p. 271-277. H1650 lung cancer cells were plated at 150,000 cells per well in a 12 well plate. Twenty-four hours after plating, cells were treated as described with increasing concentrations of drug and control. Forty-eight hours after drug treatment, cells were treated with 100 μL of 3-(4,5-Dimethylthiazol-2-yl)-2,5-diphenyltetrazolium bromide (MTT) and incubated for 2 hours at 37 C. The MTT solution was subsequently replaced with 300 μL of n-propyl alcohol and re-aliquoted to a 96 well plate. Spectrophotometric analysis of each solution was performed using a 96 well plate reader at 600 nm in triplicate.

H358 cell line = assay: In vivo H358 xenograft model, tumor volume (Example 17b); design: species or system BALB/c nu/nu mice; conditions: 5 mg/kg BID oral gavage, treatment day 32
Description: as §1

SMILES: O=S(=O)(N[C@H]1CNC[C@@H](N2c3ccccc3Oc3ccccc32)[C@@H]1O)c1ccc(OC(F)(F)F)cc1 [Example 17b, N-((3S,4S,5R)-4-hydroxy-5-(10H-phenoxazin-10-yl)piperidin-3-yl)-4-(trifluoromethoxy)benzenesulfonamide]
- Signs of toxicity (mucous diarrhea, abdominal stiffness and weight loss) [1]: no adverse signs were observed
- Toxicity as judged from animal body weights versus vehicle control [1]: No statistically significant toxicity was observed
- % T/C (mean body weight) ([1]; H358 xenograft mice): 100.5%
- % T/C (median body weight) ([1]; H358 xenograft mice): 99.4%
- Mean body weight ([1]; H358 xenograft mice): 34.41 g
- Median body weight ([1]; H358 xenograft mice): 34.1 g
- IC50 (H1650 lung cancer cells): 10 µM
- % T/C (mean tumor volume) (H358 cell line): 55%
- % T/C (median tumor volume) (H358 cell line): 54%
- Inhibition of tumor growth versus vehicle control (H358 cell line): statistically significant inhibition of tumor (T) growth versus vehicle control (C)
- Mean Tumor Volume (T) (H358 cell line): 562 mm^3
- Median Tumor Volume (T) (H358 cell line): 520 mm^3
